According to publication PMC10286718, “Amino Acid Starvation-Induced Glutamine Accumulation Enhances Pneumococcal Survival” (mSphere, 2023):

Key:
SPD1098 SBD1 (GlnP) = molecular target: T1, SPD1098 SBD1 (GlnP) (Streptococcus pneumoniae, UniProt A0A0H2ZPN9); experiment: isothermal titration calorimetry; assay type: binding
T1 construct: gene SPD_1098
T1 sequence (A0A0H2ZPN9 24-247): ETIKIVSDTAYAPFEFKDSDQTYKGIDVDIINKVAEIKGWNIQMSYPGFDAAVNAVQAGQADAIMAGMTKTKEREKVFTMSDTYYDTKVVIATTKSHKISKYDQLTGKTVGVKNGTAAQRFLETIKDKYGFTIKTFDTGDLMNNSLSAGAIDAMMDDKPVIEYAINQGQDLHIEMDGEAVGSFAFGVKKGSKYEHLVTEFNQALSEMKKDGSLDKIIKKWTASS
Source text: isothermal titration calorimetry on SPD1098 SBD1 (GlnP)

SPD1098 SBD2 (GlnP) = molecular target: T2, SPD1098 SBD2 (GlnP) (Streptococcus pneumoniae, UniProt A0A0H2ZPN9); experiment: isothermal titration calorimetry; assay type: binding
T2 construct: gene SPD_1098
T2 sequence (A0A0H2ZPN9 262-488): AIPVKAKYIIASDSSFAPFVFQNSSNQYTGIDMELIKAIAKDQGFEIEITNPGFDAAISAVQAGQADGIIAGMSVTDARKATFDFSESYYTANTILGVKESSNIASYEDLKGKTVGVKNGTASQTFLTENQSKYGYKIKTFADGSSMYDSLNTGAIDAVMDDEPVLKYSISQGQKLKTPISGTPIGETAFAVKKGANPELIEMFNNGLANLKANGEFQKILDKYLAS
Source text: isothermal titration calorimetry on SPD1098 SBD2 (GlnP)

Row | SMILES | Kd (SPD1098 SBD1 (GlnP)) [nM] | Kd (SPD1098 SBD2 (GlnP)) [nM]
1 | NC(=O)C[C@H](N)C(=O)O [asparagine] | 1090 | 
2 | NC(=O)CC[C@H](N)C(=O)O [glutamine] |  | 890
